# From patent US11389415B2, “Methods of regulating cannabinoid receptor activity-related disorders and diseases” (The United States of America as represented by the …, priority 2012, dated 2022)
# Molecular target: T1, CYP2D6 (Homo sapiens, UniProt P10635)
# T1 construct: from tissue; host or cells: human liver microsomes
# Test: CYP inhibition in human liver microsomes, CYP2D6
# Format: in vitro ADME
# Conditions: 10 μM, 20 minutes, 37° C.
# Description: Incubations containing known CYP inhibitors were also included as positive controls. Formation of the model substrate metabolites was measured by LC-MS/MS and compared to control incubations (incubation of substrates with microsomes and cofactors, no test articles or inhibitors). CYP activity in presence of test compound (MNF) that was less than 70% of control was considered significant. MNF (10 μM) inhibited CYP2D6 and CYP3A4 to less than 70% of the control. Further, the primary metabolite was determined to be O-demethylated-MNF. These studies indicate that MNF alters the metabolism of other drugs or endogenous compounds that are substrates for CYP2D6 and/or CYP3A4 isoforms, when present in the plasma or liver at 10 μM or higher.
# T1 sequence (P10635 whole entry): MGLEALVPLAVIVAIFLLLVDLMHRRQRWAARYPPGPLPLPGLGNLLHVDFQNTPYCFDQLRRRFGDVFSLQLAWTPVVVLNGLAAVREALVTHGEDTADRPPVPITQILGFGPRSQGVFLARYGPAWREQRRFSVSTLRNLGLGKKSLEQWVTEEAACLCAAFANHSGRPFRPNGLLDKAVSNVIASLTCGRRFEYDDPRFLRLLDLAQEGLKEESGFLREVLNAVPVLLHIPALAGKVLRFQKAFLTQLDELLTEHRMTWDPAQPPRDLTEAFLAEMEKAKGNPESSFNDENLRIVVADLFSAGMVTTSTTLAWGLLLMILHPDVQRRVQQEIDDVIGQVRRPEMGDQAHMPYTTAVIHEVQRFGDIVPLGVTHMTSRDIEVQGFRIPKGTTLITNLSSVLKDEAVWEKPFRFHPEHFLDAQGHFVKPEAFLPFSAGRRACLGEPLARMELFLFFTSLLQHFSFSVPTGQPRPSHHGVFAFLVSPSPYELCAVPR
smiles,measurement,value
"COc1ccc(C[C@@H](C)NC[C@H](O)c2cc(O)cc(O)c2)c2ccccc12 [(R,R′)-MNF, (R,R′)-4′-methoxy-1-naphthylfenoterol]",CYP2D6 activity in presence of test compound,less than 70 % of the control
